# Laboratory results from ChEMBL document CHEMBL4303773 (Nature, 2020).
# Activity calls are given as the source filed them. The rule behind the calls is not given here.
# Tests used:
# [1] = target: T1, Muscarinic acetylcholine receptor M2 (Homo sapiens, UniProt P08172); assay: Activity of compound against Muscarinic acetylcholine receptor M2 (CHRM2) by displacement of 3H-QNB
# T1 sequence (P08172 whole entry): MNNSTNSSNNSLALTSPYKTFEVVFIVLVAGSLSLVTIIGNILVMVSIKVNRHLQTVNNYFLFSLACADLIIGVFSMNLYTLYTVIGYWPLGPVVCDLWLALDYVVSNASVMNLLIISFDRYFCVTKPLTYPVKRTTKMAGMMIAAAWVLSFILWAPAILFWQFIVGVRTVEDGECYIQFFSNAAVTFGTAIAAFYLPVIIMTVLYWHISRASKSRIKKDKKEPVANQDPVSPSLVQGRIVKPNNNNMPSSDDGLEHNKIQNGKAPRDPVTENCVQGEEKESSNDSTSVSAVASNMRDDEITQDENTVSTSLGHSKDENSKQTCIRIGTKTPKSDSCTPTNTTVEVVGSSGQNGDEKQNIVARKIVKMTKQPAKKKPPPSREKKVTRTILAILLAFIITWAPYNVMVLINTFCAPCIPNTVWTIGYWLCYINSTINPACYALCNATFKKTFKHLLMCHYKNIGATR
# Vero C1008 [2] = assay: AUC (cytotoxicity %) of compound against Vero E6 cells by MTT assay.; format: toxicity, cell-based; conditions: chlorocebus sabaeus
# [3] = target: Voltage-gated inwardly rectifying potassium channel KCNH2 (Homo sapiens, UniProt Q12809)
# Description: hERG binding assays: Displacement of [3H]-Dofetilide (5 nM final) from hERG membranes obtained from HEK293 cells
# [4] = target: Sigma non-opioid intracellular receptor 1 (Homo sapiens, UniProt Q99720)
# Description: Displacement of [3H]-pentazocin from the Sigma1 receptor
# [5] = target: Sigma intracellular receptor 2 (Homo sapiens, UniProt Q5BJF2); assay: Displacement of [3H]-DTG from the Sigma2 receptor
# SARS-CoV-2 [6] = assay: IC90 for antiviral activity against SARS-CoV-2 in the Vero E6 cell line by measuring infectious viral titer of supernatent from compound-treated Vero E6 cells by Median Tissue Culture Infectious Dose (TCID)50 by the method of Reed and Muench; format: functional, Chlorocebus sabaeus; conditions: Severe acute respiratory syndrome coronavirus 2, Vero C1008
# SARS-CoV-2 [7] = conditions: Chlorocebus sabaeus; Vero C1008
# [8] = target: T2, Muscarinic acetylcholine receptor M4 (Homo sapiens, UniProt P08173); assay: Activity of compound against Muscarinic acetylcholine receptor M4 (CHRM4) by displacement of 3H-QNB
# T2 sequence (P08173 whole entry): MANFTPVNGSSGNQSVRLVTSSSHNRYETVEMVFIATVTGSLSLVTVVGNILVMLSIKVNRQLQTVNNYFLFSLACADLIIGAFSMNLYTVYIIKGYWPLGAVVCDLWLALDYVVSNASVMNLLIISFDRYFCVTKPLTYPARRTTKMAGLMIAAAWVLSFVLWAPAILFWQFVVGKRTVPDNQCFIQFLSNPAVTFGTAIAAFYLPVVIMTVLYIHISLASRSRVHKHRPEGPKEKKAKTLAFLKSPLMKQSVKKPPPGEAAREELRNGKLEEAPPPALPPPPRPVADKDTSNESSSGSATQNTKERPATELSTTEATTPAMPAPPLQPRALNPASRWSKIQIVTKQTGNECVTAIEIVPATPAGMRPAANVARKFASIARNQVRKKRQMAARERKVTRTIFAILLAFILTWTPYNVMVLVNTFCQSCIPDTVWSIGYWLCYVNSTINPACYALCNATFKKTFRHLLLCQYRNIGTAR
# [9] = target: T3, Muscarinic acetylcholine receptor M5 (Homo sapiens, UniProt P08912); assay: Activity of compound against Muscarinic acetylcholine receptor M5 (CHRM5) by displacement of 3H-QNB
# T3 sequence (P08912 whole entry): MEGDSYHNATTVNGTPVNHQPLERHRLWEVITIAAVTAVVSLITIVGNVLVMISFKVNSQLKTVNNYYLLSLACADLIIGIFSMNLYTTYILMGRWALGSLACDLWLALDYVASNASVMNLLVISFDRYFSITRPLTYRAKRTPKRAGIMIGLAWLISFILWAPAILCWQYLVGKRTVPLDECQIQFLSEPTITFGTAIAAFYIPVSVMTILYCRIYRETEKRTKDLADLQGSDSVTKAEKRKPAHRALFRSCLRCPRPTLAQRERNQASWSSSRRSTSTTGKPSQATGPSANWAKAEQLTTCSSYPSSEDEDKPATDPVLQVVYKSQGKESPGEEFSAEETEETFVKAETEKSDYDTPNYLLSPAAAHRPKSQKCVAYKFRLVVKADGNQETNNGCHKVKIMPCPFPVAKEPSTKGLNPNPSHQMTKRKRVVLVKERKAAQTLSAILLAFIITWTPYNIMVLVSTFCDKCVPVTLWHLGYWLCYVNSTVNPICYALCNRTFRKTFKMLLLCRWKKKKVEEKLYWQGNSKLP
# [10] = target: T4, Alpha-2A adrenergic receptor (Homo sapiens, UniProt P08913); assay: Activity of compound against Alpha-2A (ADRA2A) adrenergic receptor by displacement of [3H]-rauwolscine
# T4 sequence (P08913 whole entry): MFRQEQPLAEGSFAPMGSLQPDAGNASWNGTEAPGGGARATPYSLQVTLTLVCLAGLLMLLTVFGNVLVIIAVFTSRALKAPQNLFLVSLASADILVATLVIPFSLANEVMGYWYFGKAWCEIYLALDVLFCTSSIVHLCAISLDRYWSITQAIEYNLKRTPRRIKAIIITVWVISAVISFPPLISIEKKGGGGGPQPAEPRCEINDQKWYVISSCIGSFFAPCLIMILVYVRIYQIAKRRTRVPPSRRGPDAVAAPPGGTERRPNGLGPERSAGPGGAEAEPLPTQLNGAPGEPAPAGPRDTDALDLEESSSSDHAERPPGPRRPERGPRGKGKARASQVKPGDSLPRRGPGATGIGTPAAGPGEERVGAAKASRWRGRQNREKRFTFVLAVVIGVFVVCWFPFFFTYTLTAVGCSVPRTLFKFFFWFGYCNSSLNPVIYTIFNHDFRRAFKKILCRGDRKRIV
# SARS-CoV-2 [11] = conditions: Chlorocebus sabaeus; Vero C1008; remark: listed apart in the source
# Vero C1008 [12] = assay: (§1) Cytotoxicity of compound against Vero E6 cells by MTT assay.; conditions: chlorocebus sabaeus, vero c1008
# [13] = as §1; conditions: chlorocebus sabaeus, Vero E6 cells
# in vitro = conditions: monkey, Vero E6 cells
# Voltage-gated inwardly rectifying potassium channel KCNH2, sequence (Q12809 whole entry): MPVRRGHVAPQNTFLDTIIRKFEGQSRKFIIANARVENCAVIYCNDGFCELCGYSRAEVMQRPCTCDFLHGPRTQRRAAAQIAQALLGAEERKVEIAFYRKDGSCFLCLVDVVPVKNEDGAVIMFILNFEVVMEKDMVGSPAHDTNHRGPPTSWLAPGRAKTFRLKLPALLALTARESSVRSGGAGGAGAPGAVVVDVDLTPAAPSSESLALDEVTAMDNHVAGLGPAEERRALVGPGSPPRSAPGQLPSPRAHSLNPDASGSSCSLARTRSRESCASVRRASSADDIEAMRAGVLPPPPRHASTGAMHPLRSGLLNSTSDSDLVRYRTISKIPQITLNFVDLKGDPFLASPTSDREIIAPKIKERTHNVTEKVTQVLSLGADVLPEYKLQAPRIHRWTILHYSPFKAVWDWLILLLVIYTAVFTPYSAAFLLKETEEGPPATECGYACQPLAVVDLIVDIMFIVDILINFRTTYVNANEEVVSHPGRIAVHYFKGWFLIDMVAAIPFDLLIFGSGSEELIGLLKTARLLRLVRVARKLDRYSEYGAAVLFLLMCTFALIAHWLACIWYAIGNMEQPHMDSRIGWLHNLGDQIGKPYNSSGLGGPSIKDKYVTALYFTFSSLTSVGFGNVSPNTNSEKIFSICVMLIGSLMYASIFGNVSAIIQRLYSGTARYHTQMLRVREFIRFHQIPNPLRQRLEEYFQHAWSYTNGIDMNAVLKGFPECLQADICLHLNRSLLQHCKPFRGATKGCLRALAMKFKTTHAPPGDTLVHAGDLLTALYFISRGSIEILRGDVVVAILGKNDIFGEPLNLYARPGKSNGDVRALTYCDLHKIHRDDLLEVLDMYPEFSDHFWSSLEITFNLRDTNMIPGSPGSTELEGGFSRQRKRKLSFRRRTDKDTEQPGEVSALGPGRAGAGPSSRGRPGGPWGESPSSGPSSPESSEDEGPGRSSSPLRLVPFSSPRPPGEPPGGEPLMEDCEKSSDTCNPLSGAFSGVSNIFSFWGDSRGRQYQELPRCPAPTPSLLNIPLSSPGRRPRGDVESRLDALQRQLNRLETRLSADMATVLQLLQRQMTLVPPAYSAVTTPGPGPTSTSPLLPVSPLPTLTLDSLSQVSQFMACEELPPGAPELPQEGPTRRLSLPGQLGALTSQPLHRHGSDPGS
# Sigma intracellular receptor 2, sequence (Q5BJF2 whole entry): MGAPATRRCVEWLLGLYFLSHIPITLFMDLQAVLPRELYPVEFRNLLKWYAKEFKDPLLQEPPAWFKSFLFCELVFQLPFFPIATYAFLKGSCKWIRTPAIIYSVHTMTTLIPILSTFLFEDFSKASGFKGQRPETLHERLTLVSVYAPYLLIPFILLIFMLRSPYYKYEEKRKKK
# Sigma non-opioid intracellular receptor 1, sequence (Q99720 whole entry): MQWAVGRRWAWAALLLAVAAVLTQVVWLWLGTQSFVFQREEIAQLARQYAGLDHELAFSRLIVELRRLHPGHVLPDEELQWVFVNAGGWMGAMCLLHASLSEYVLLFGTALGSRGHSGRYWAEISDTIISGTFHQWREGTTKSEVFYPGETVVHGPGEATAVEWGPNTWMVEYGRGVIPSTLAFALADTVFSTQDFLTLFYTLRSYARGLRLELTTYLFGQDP
compound,measurement,setting,value
CCN(CCO)CCCC(C)Nc1ccnc2cc(Cl)ccc12 (stereo not drawn) [HYDROXYCHLOROQUINE],Ki,[1],5.13 µM
same,AUC cytotoxicity,Vero C1008 [2],234.6
same,Ki,[3],2.51 µM
same,Ki,[4],0.126 µM
same,Ki,[5],1 µM
same,IC90,SARS-CoV-2 [6],5.78 µM
same,AUC,SARS-CoV-2 [7],140
same,Ki,[8],5.5 µM
same,Ki,[9],20 µM
same,Ki,[10],6.46 µM
CCOC(=O)N1CCC(=C2c3ccc(Cl)cc3CCc3cccnc32)CC1 [LORATADINE],pIC50,SARS-CoV-2 [11],Linear Fit; INACTIVE
same,pCC50,Vero C1008 [12],Linear Fit
CN(C)C(=N)N=C(N)N [METFORMIN],AUC cytotoxicity,Vero C1008 [2],305.4
same,CC50,[13],~33.6 µM
same,selectivity ratio,in vitro,1.04
N=C(N)c1ccc2cc(OC(=O)c3ccc(N=C(N)N)cc3)ccc2c1 [NAFAMOSTAT],AUC cytotoxicity,Vero C1008 [2],279.9
same,pCC50,Vero C1008 [12],~ 2.44
same,selectivity ratio,in vitro,0.926 (inactive)
